This is an account of results in patent US9333240B2, “Compounds for improving nutritional status, cognition and survival” (YISSUM RESEARCH DEVELOPMENT COMPANY OF THE HEBREW …, priority 2005, dated 2016).

Assay [1] concerns BrdU-immunoreactive cells in the dentate gyrus. The assay is described as follows: BrdU labelling of newly generated cells in the dentate gyrus of mice. In kind it is in vivo. Particulars: 25 nM AICAR once daily for 10 days vs saline. Here is the method:
In order to determine what is “low level activation” varying doses of the AMPK pathway activator may be administered to test animals in the final formulation intended to be used in humans, together with Brd-U. Animals are than sacrificed and the number of BrdU-immunoreactive cells in the dentate gyrus is determined in order to measure the generation rate of new cells. Amounts that are capable of increasing the number of newly generated cells are considers as “therapeutically effective amounts” when converted, according to known criteria, to physiologically corresponding amounts in humans.
The function of AMPK activation in the hippocampus was evaluated. […] Mice were treated with bromodeoxyuridine (BrdU) and either saline or 25 nM AICAR (low level stimulation) once daily for 10 days. […] Next, behavioral testing was performed using the eight-arm maze to determine whether there was a concomitant improvement in cognition. […] (FIG. 1C).

For a further assay, the system named is mice. The assay is described as follows: Eight-arm maze, mice ad libitum or diet restricted. Format: in vivo. Here is the method:
Control mice received food ad-libitum. Diet-restricted mice received a diet of 57 kCal/week/mouse (2.16 g/day/mouse) as 60% of the requirement, or 38 kCal/week/mouse (1.44 g/day/mouse) for 40%/DR. DR was carried out for 10 days. Behavioral test was performed using the eight-arm spatial maze during the second week of experiment. […] Mice were sacrificed by decapitation after the behavioral tests and the hippocampi were frozen at −70° C. The animals were placed in an eight-arm maze, which is a scaled-down version of that developed for rats (Randt et al, (1971) Science 172, 489-499; Ziv et al (1994) Neuroscience Lett, 170, 136-140). […] The mice were tested until they made entries into all eight arms or until they completed 24 entries, whichever came first. […] Maze performance was calculated each day for five consecutive days. Results were presented as area under the curve (AUC) utilizing the formula: (day 2+day 3+day 4+day 5)−4*(day 1).

The subject of assay [2] is norepinephrine and dopamine in the hippocampus. The assay is described as follows: Hippocampal catecholamine measurements (HPLC-ECD). In kind it is in vivo, mice. The note with it: AICAR 1-2 mM daily for 10 days. Here is the method:
Control mice received food ad-libitum. Diet-restricted mice received a diet of 57 kCal/week/mouse (2.16 g/day/mouse) as 60% of the requirement, or 38 kCal/week/mouse (1.44 g/day/mouse) for 40%/DR. DR was carried out for 10 days. Behavioral test was performed using the eight-arm spatial maze during the second week of experiment. During the behavioral tests, half of the animals in each group were injected intraperitoneally (i.p) with AICAR (1-2 mM equal to 258-516 mg/kg) or leptin (1 mg/kg) and the other half with saline. Mice were sacrificed by decapitation after the behavioral tests and the hippocampi were frozen at -70° C. Catecholamines were measured as described previously ([…] et al (1996), Brain Res. 732, 133-144. The assays for dopamine and NE were performed by HPLC separation and detection using HPLC-ECD. Values are presented as a concentration (ng/mg tissue).

Another assay deals with Bcl-2, Bax, PARP. Kind of assay: Hippocampal apoptosis proteins by RT-PCR and immunoblotting. In kind it is in vivo, mice. The note with it: AICAR treatment (1-2 mM), RT-PCR and immunoblotting. Here is the method:
Total hippocampal RNA was extracted using […] reagent according to the manufacturer's instructions and reverse transcribed. Primers specific for OBRlong were […] NO: 1) and […] NO: 6), for […] NO: 2), and […] NO: 7), for BAX […] NO: 3) and […] NO: 8) for Bcl-2 […] NO: 4) and […] NO: 9) and for actin […] NO: 5) and […] NO: 10). […] Total hippocampal Protein was extracted using […] reagent. Aliquots of the clarified lysates containing […] were denatured in Laemmli sample buffer (6% SDS 30%, glycerol, 0.02% bromophenol blue, 200 mM Tris-HCl (pH 6.8), and 250 mM-mercaptoethanol, at 95° C. for 5 min. The samples were resolved by SDS-PAGE (10% acrylamide), and blotted onto nitrocellulose membrane. Non-specific binding in a Western blot analysis was prevented by immersing the membranes in blocking buffer (5% nonfat dry milk in Tris-buffer saline-Tween 20 (TBS-T)), for 2 h at room temperature. The membranes were then exposed to the indicated antibodies diluted 1:1000 for 1 h at room temperature. AMPK, phospho-AMPK and PARP were obtained from Cell Signaling. Bax, bcl-2 and actin were from Santa Cruz Biotechnology Inc. (Santa Cruz, Calif.). The blots were rinsed in TBS-T and then incubated with horseradish peroxidase-conjugated goat anti-mouse antibodies 1:10,000 for 1 h at room temperature. Antibody-antigen complexes were visualized by detecting enhanced chemiluminescence with X-ray film.
A general note: In western blotting, separated proteins are transferred to a membrane and probed.

The test system of assay [3] is differentiated PC-12 cells. The assay is described as follows: Viable cell number of differentiated PC-12 cells. Particulars: AICAR 0.125 to 1.0 mM, 96 h. Format: cell-based. Here is the method:
PC-12 cells were kindly provided by O. Meyuhas, Dept. of Biochem., Faculty of Medicine, Jerusalem. These cells were grown either in Dulbecco's modified Eagle's medium (DMEM) supplemented with 8% horse serum, 8% fetal bovine serum (FBS), glutamine, and gentamicin or with 1% horse serum, in the presence of nerve growth factor (NGF) (50 ng/ml), which causes the cells to differentiate. Murine leptin was provided by A. Gertler. AICAR was obtained from Toronto Research Chemicals (TRC). To confirm the cellular effects of AMPK in the hippocampus, in-vitro studies on PC-12 cells were also preformed.

Another assay deals with PC-12 cells. Kind of assay: Annexin V FACS analysis of apoptosis in PC-12 cells. The note with it: AICAR, 48 h. In kind it is cell-based. The method, then:
Cells were grown in 60-mm plates and treated with AICAR for 48 h. Apoptosis was evaluated using the Annexin V FITC Detection Kit (Oncogene Research Products, Cambridge Mass.). Briefly, both attached and floating cells were collected, washed with cold PBS, re-suspended at a density of 5×10^5/ml in 0.5 ml DMEM, stained for annexin V and analyzed by flow cytometry. The apoptotic ratio at 48 h, was also evaluated, by FACS analysis.
For orientation: In flow cytometry, cells or beads pass a laser one at a time.

`NC(=O)c1ncn([C@@H]2O[C@H](CO)[C@@H](O)[C@H]2O)c1N` [AICAR, 5-aminoimidazole-4-carboxamide ribonucleoside, reference compound]: the “number of BrdU-immunoreactive cells in the dentate gyrus (generation rate of new cells)” value in assay [1] was “significantly increased”. In the assay with mice (25 nM AICAR (low level stimulation) vs controls), the eight-arm maze performance result is on record as “performed significantly better than the controls”. Further, the eight-arm maze performance result in the assay on mice (high dose AICAR (1-2 mM) vs ad libitum group, similar to DR to 40%) is on record as “significant deterioration in maze performance”. In assay [2] (p<0.05), the dopamine concentrations result is on record as “elevating”. In addition, in assay [2] (p<0.05, 0.01 for the two dosages), the “norepinephrine (NE) concentrations” value is on record as “decreased”. Besides, in the assay with Bcl-2, Bax, PARP, the Bax level entry is reported as “up-regulation” and the bcl-2 level result is “reducing”. Moreover, the “number of viable cells” value in assay [3] is recorded as “dose-dependent reduction in the number of viable cells, reaching almost total after 96 h”. For the same molecule, the “apoptotic cell death (Annexin V staining)” value in the assay with PC-12 cells is reported as “induces apoptotic cell death in a dose-dependent manner”.
